Patent US8906908B2, “Hydroxybupropion analogues for treating drug dependence” (priority 2010, dated 2014)
Like-named read-outs stand apart in the source and are kept apart here.

Key:
α4β2-nAChR = biological target: T1, α4β2-nAChR (Homo sapiens, UniProt P17787+P43681); test: 86Rb+ efflux nAChR functional assay, SH-EP1-hα4β2 cells; assay type: cell-based
T1 construct: expressed in transfected cells; host or cells: SH-EP1 epithelial cells (SH-EP1-hα4β2)
Description: (§1) Cell Lines and Culture: Human embryonic kidney (HEK-293) cells stably expressing human DAT, NET or SERT were maintained as previously described in Eshleman, A. J.; Carmolli, M.; Cumbay, M.; Martens, C. R.; Neve, K. A.; Janowsky, A., J. Pharmacol. Exp. Ther. 1999, 289, (2), 877-885. Use was made of several human cell lines that naturally or heterologously express specific, functional, human nAChR subtypes. Cells of the TE671/RD line naturally expresses muscle-type nAChR (a1β1γδ- or α1*-nAChR), and SH-SY5Y neuroblastoma cells naturally expresses autonomic α3β4*-nAChRs (containing α3, β4, probably α5, and sometimes β2 subunits). Different clones of SH-EP1 epithelial cell lines have been engineered to heterologously express either α4β2-nAChR, which are thought to be the most abundant, high affinity nicotine-binding nAChR in mammalian brain, or α4β4-nAChR, another possible brain nAChR subtype (SH-EP1-hα4β2 or α4β4 cells, respectively). These cells were maintained as low passage number (1-26 from our frozen stocks) cultures to ensure stable expression of native or heterologously-expressed nAChR as previously described (see Lukas, R. J.; Fryer, J. D.; Eaton, J. B.; L., G. C., Some methods for studies of nicotinic acetylcholine receptor pharmacology, in Nicotinic receptors and the Nervous System, Levine, E. D., Ed. CRC Press: Boca Raton, 2002; pp 3-27, incorporated herein by reference in its entirety). Cells were passaged once weekly by splitting just-confluent cultures 1/300 (TE671/RD), 1/5 (SH-SY5Y), or 1/20 (transfected SH-EP1) in serum-supplemented medium to maintain log-phase growth.
(§2) After cells had adhered (generally overnight, but no sooner than 4 h later), the medium was removed and replaced with 250 μL per well of complete medium supplemented with ˜350,000 cpm of ^86Rb^+ (PerkinElmer Life and Analytical Sciences, Boston, Mass.) and counted at 40% efficiency using Cerenkov counting (TriCarb 1900 liquid scintillation analyzer[…]; PerkinElmer Life Sciences).
(§3) After at least 4 h and typically overnight, ^86Rb^+ efflux was measured using the “flip-plate” technique. See Lukas, R. J.; Fryer, J. D.; Eaton, J. B.; L., G. C., Some methods for studies of nicotinic acetylcholine receptor pharmacology, in Nicotinic receptors and the Nervous System, Levine, E. D., Ed. CRC Press: Boca Raton, 2002; pp 3-27, incorporated herein by reference in its entirety). Briefly, after aspiration of the bulk of ^86Rb^+ loading medium from each well of the “cell plate,” each well containing cells was rinsed 3× with 2 mL of fresh ^86Rb^+ efflux buffer (130 mM NaCl, 5.4 mM KCl, 2 mM CaCl2, 5 mM glucose, 50 mM HEPES, pH 7.4) to remove extracellular ^86Rb^+. Following removal of residual rinse buffer by aspiration, the flip-plate technique was used again to simultaneously introduce 1.5 mL of fresh efflux buffer containing drugs of choice at indicated final concentrations from a 24-well “efflux/drug plate” into the wells of the cell plate. After a 5 min incubation, the solution was “flipped” back into the efflux/drug plate, and any remaining buffer in the cell plate was removed by aspiration. Cells remaining in the cell plate were lysed and suspended by addition of 1.5 mL of 0.1 M NaOH, 0.1% sodium dodecyl sulfate to each well.
(§4) Similarly, the sum of ^86Rb^+ in cell plates and efflux/drug plates also determined the efficiency of ^86Rb^+ loading (the percentage of applied ^86Rb^+ actually loaded into cells).
(§5) Specific efflux was then taken as the difference in control samples between total and non-specific ^86Rb^+ efflux. Any intrinsic agonist activity of test drugs was ascertained using samples containing test drug only at different concentrations and was normalized, after subtraction of non-specific efflux, to specific efflux in test drug-free, control samples.

α3β4*-nAChR = test: 86Rb+ efflux nAChR functional assay, SH-SY5Y cells; assay type: cell-based, human
Description: as §1, §2, §3, §4, §5

[1] = EC80-EC90 carbamylcholine, SH-EP1-hα4β2, parentheses = S.E.M. as multiplication/division factor, read-out: nAChR inhibition IC50 α4β2

T1 sequence (P43681 29-627 limits assumed): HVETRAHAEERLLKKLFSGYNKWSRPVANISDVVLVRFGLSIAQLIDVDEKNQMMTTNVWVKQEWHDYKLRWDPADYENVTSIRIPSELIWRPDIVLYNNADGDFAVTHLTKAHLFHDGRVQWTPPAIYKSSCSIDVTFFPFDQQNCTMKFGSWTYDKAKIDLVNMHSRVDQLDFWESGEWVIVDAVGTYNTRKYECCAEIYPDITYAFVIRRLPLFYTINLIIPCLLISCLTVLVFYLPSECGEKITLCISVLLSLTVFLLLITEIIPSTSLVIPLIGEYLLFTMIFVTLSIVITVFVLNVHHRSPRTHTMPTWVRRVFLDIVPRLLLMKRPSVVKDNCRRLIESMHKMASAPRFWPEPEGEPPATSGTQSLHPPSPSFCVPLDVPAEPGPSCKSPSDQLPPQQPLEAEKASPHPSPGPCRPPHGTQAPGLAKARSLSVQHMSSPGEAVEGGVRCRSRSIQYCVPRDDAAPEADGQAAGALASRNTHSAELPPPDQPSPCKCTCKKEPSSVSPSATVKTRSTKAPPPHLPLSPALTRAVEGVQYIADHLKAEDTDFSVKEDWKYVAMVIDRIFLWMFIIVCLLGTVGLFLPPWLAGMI
T1 sequence (P17787 26-502): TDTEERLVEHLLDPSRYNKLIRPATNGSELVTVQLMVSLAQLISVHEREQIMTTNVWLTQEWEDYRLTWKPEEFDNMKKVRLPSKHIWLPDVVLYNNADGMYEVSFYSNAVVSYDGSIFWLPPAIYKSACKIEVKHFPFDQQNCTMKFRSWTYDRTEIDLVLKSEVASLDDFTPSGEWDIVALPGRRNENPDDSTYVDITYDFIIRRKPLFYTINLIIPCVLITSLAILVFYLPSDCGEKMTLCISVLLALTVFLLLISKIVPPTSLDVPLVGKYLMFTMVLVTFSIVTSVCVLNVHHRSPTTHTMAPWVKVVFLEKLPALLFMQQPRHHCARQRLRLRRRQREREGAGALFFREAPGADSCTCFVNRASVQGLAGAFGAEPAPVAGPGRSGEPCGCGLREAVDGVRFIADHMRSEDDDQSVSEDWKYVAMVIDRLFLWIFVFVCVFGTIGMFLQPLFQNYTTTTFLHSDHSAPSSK

SMILES	IC50 (α4β2-nAChR; [1])	also measured
CC1NC(C)(C)COC1(O)c1cc(Cl)cc(Cl)c1 (racemic) [Compound 4p, 2-(3,5-Dichlorophenyl)-3,5,5-trimethylmorpholin-2-ol]	11 µM	
C[C@@H]1NC(C)(C)CO[C@@]1(O)c1ccc(F)c(F)c1 [Compound 4m, (2S,3S)-2-(3,4-Difluorophenyl)-3,5,5-trimethylmorpholin-2-ol]	12 µM	
C[C@@H]1NC(C)(C)CO[C@@]1(O)c1cccc(Br)c1 [Compound 4d, (2S,3S)-2-(3-Bromophenyl)-3,5,5-trimethylmorpholin-2-ol]	0.55 µM	selectivity for inhibition of α4β2-nAChR over DA uptake inhibition (α4β2-nAChR): ~6 fold
C[C@@H]1NC(C)(C)CO[C@@]1(O)c1cccc2ccccc12 [Compound 4q, (2S,3S)-2-(Naphthalen-1-yl)-3,5,5-trimethylmorpholin-2-ol]	9 µM	
C[C@@H]1NC(C)(C)CO[C@@]1(O)c1cccc(F)c1 [Compound 4c, (2S,3S)-2-(3-Fluorophenyl)-3,5,5-trimethylmorpholin-2-ol]	1.3 µM	
C[C@@H]1NC(C)(C)CO[C@@]1(O)c1cccc([N+](=O)[O-])c1 [Compound 4g, (2S,3S)-2-(3-Nitrophenyl)-3,5,5-trimethylmorpholin-2-ol]	4.8 µM	IC50 (α4β2-nAChR): < 10 µM; selectivity for α4β2-nAChR over other nAChR subtypes (α4β2-nAChR): ~3 fold
CC1NC(C)(C)COC1(O)c1ccc(Cl)c(Cl)c1 (racemic) [Compound 4n, 2-(3,4-Dichlorophenyl)-3,5,5-trimethylmorpholin-2-ol]	20 µM	selectivity for α3β4*- over α4β2-nAChR (α3β4*-nAChR): ~8 fold
CC[C@@H]1NC(C)(C)CO[C@@]1(O)c1cccc(Cl)c1 [Compound 4s, (2S,3S)-2-(3-Chlorophenyl)-3-ethyl-5,5-dimethylmorpholin-2-ol]	2.9 µM	
C[C@@H]1NC(C)(C)CO[C@@]1(O)c1ccc(F)cc1 [Compound 4h, (2S,3S)-2-(4-Fluorophenyl)-3,5,5-trimethylmorpholin-2-ol]	12 µM	
C[C@@H]1NC(C)(C)CO[C@@]1(O)c1ccc2ccccc2c1 [Compound 4r, (2S,3S)-2-(Naphthalen-2-yl)-3,5,5-trimethylmorpholin-2-ol]	6.5 µM	
C[C@@H]1N(C)C(C)(C)CO[C@@]1(O)c1cccc(Cl)c1 [Compound 4u, (2S,3S)-2-(3-Chlorophenyl)-3,4,5,5-tetramethylmorpholin-2-ol]	7.1 µM	
Cc1ccc([C@]2(O)OCC(C)(C)N[C@H]2C)cc1 [Compound 4j, (2S,3S)-3,5,5-Trimethyl-2-(4-methylphenyl)morpholin-2-ol]	12 µM	
C[C@@H]1NC(C)(C)CO[C@@]1(O)c1ccccc1 [Compound 4b, (2S,3S)-2-Phenyl-3,5,5-trimethylmorpholin-2-ol]	6.4 µM	IC50 (α4β2-nAChR): < 10 µM
Cc1cccc([C@]2(O)OCC(C)(C)N[C@H]2C)c1 [Compound 4e, (2S,3S)-2-(m-Tolyl)-3,5,5-trimethylmorpholin-2-ol]	6 µM	
COc1cccc([C@]2(O)OCC(C)(C)N[C@H]2C)c1 [Compound 4f, (2S,3S)-2-(3-Methoxyphenyl)-3,5,5-trimethylmorpholin-2-ol]	10 µM	IC50 (α4β2-nAChR): < 10 µM
C[C@@H]1N(C)C(C)(C)CO[C@@]1(O)c1ccc(Cl)cc1 [Compound 4v, (2S,3S)-2-(4-Chlorophenyl)-3,4,5,5-tetramethylmorpholin-2-ol]	42 µM	
COc1ccc([C@]2(O)OCC(C)(C)N[C@H]2C)cc1 [Compound 4k, (2S,3S)-2-(4-Methoxyphenyl)-3,5,5-trimethylmorpholin-2-ol]	27 µM	
C[C@@H]1NC(C)(C)CO[C@@]1(O)c1cc(F)cc(F)c1 [Compound 4o, (2S,3S)-2-(3,5-Difluorophenyl)-3,5,5-trimethylmorpholin-2-ol]	6.3 µM	IC50 (α4β2-nAChR): < 10 µM
C[C@@H]1NC(C)(C)CO[C@@]1(O)c1ccc(-c2ccccc2)cc1 [Compound 4l, (2S,3S)-2-Biphenyl-4-yl-3,5,5-trimethylmorpholin-2-ol]	1.8 µM	IC50 (α4β2-nAChR): < 10 µM
C[C@@H]1NC(C)(C)CO[C@@]1(O)c1ccc(Cl)cc1 [Compound 4i, (2S,3S)-2-(4-Chlorophenyl)-3,5,5-trimethylmorpholin-2-ol]	9.2 µM	
